Assays:
pregnant rats = assay: Abortifacient activity in pregnant rats; assay type: in vivo, rat; details: treatment days 5-7 of pregnancy, autopsy day 9; * SAS, probit procedure
Excerpt: (§1) The guinea pig is considered as relevant model of human gestation and parturition (Elger W, Fähnrich M, Beier S, Quing S S, Chwalisz K (1987). Endometrial and myometrial effects of progesterone antagonists in pregnant guinea pigs. Am J Obstet Gynecol 157: 1065-1074; Elger W, Neef G, Beier S, Fähnrich M, Gründel M, Heermann J, Malmendier A, Laurent D, Puri C P, Singh M M, Hasan S H, Becker H (1992). Evaluation of antifertility activities of antigestagens in animal model. In: Puri C P and Van Look P F A (eds), Current Concepts in Fertility Regulation and Reproduction. Wiley Eastern Limited, New Delhi, pp. 303-328; Elger W, Faehnrich M, Beier S, Qing S S, Chwalisz K (1986). Mechanism of action of progesterone antagonists in pregnant guinea pigs. Contraception 6: 47-62; Elger W, Chwalisz K, Faehnrich M, Hasan S H, Laurent D, Beier S, Ottow E, Neef G, Garfield R E (1990). Studies on labor-conditioning and labor-inducing effects of antiprogesterones in animal model. In: Garfield R E (eds), Norwell, pp. 153-175.) The mechanism of abortion of antiprogestins in this species is the initiation of labor and finally the expulsion of the conceptus. Abortifacient effects in the rat during very early pregnancy reflect inhibitory effects on nidation rather than initiation of uterine contractions. Studies in the rat model lead to “overestimation” of the potential of antiprogestins to terminate pregnancy in humans. Conversely, in the guinea pig model, irrespective of the antiprogestin doses, there were high rates of ongoing pregnancies similar to the situation in humans (Elger et al., Current Concepts in Fertility Regulation and Reproduction cited above). Furthermore, in both humans and guinea pigs, there is a strong synergism between antiprogestins and prostaglandins with respect the induction of labor (see the articles cited above and Elger W, Beier S (1983). Prostaglandine und Antigestagene für den Schwangerschaftsabbruch (Prostaglandins and antigestagens for pregnancy termination). German Patent DE 3337450 12; Van Look P, Bygdeman M (1989). Antiprogestational steroids: a new dimension in human fertility regulation. Oxford reviews of reproductive medicine 11: 2-60).

pregnant guinea pigs = assay: Abortifacient (labor inducing) activity in pregnant guinea pigs; assay type: in vivo, guinea pig; details: for abortifacient activity ED50, guinea pig: treatment day 43-44 of pregnancy, autopsy day 50; for maximal abortion rate: up to 100 mg/kg/day
Description: In the guinea pig model which allows a good prediction of the effects in humans with respect to the abortifacient activity (Elger W, Beier S., Chwalisz K, Fähnrich M, Hasan S H, Henderson D, Neef G, Rohde R (1986): Studies on the mechanism of action of progesterone antagonists. J Steroid Biochem 25: 835-845) the mesoprogestins J 867, J 912, J 956, J 1042 lead up to 100 mg/kg/day to a maximal abortion rate of 20%.
as §1
Pregnant guinea pigs were treated on days 43 and 44 of pregnancy and observed until day 50 of gestation. For the effects of various treatments see table 1 and FIG. 2. It is typical for this model that expulsions occur with a delay of several days after treatment. It can be seen that Mesoprogestins have a much reduced abortifacient activity compared to RU486. […] The differences with respect to abortifacient activity seem qualitative ones. It is not possible to overcome the low abortifacient activity of a Mesoprogestin by the use of a higher dose.

[1] = target: T1, progesterone receptor (PR) (Oryctolagus cuniculus, UniProt P06186); assay: McPhail test, PR agonistic properties in estradiol-primed juvenile rabbits; assay type: in vivo, rabbit; details: for maximum effect, McPhail score: 4 days s.c. treatment, absence of progesterone, 0 = no transformation, 4 = complete transformation
T1 construct: from tissue; host or cells: endometrium of estradiol-primed juvenile rabbits, in vivo
T1 sequence (P06186 1-930): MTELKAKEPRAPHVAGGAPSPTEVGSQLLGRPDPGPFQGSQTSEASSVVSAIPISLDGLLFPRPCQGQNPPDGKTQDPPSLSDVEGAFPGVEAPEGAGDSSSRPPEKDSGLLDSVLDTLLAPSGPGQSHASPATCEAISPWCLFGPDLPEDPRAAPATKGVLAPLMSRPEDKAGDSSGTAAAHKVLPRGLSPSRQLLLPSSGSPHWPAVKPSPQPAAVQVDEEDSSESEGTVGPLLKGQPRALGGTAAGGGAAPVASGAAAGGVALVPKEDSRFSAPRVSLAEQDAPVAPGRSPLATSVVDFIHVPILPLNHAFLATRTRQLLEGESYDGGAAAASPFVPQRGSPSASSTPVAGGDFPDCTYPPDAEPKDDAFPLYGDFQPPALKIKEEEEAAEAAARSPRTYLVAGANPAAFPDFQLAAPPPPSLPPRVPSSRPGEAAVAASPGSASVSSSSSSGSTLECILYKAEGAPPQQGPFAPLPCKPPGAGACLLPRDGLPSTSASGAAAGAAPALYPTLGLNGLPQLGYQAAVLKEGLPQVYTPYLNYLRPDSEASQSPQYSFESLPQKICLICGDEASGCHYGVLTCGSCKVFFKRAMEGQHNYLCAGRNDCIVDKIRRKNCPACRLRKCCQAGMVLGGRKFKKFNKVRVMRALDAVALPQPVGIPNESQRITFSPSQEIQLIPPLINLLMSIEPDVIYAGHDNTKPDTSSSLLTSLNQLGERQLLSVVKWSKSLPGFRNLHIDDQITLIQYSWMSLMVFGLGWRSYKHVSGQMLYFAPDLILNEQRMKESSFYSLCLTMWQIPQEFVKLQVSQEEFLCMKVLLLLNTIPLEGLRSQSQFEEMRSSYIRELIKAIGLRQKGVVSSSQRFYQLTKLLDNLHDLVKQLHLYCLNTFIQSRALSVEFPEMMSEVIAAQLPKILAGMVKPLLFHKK
Description: In the classical bioassay, the McPhail test, assessing progestagenic and antiprogestagenic effects in rabbits (Selye H., Textbook of Endocrinology, 1947, pp. 345-346), progesterone produces a maximum McPhail score of 4 (by definition). […] The PR antagonistic and agonistic properties of mesoprogestins were assessed in estrogen-primed rabbits in the McPhail test according to Selye (Textbook of Endocrinology, 1947, pp. 345-346).

[2] = dose range 0.003-100 mg/rabbit s.c.

SMILES	abortifacient activity ED50, Rat (pregnant rats)	abortifacient activity ED50, guinea pig (pregnant guinea pigs)	maximal abortion rate (pregnant guinea pigs) [%]	progestagenic effect compared with maximum effect of progesterone [1, 2]	maximum effect, McPhail score [1]	shape of dose response [1, 2]	dose inducing endometrial transformation ([1]; 4 days s.c.) [mg]
COC[C@]1(OC)CC[C@H]2[C@@H]3CCC4=CC(=O)CCC4=C3[C@@H](c3ccc(/C=N/O)cc3)C[C@@]21C [Compound J867, 4-[17βMethoxy-17α-(methoxymethyl)-3-oxoestra-4,9-dien-11β-yl]benzaldehyd-(1E)-oxim]	0.65* mg/animal/day, s.c.	>100 mg/animal/day, s.c.	20	Neither mesoprogestin tested (J 1042, J867, J956) reached the maximum effect of progesterone	–	–	–
COCC1(O)CCC2C3CCC4=CC(=O)CCC4=C3C(c3ccc(C=NO)cc3)CC21C (stereo not drawn) [Compound J912, 4-[17β-Hydroxy-17α-(methoxymethyl)-3-oxoestra-4,9-dien-11β-yl]benzaldehyd-(1E)-oxim]	0.36 mg/animal/day, s.c.	>100 mg/animal/day, s.c.	20	–	–	–	–
CCNC(=O)O/N=C/c1ccc([C@H]2C[C@@]3(C)[C@@H](CC[C@]3(COC)OC)[C@@H]3CCC4=CC(=O)CCC4=C32)cc1 [Compound J956, 4-[17β-Methoxy-17α-(methoxymethyl)-3-oxoestra-4,9-dien-11β-yl]benzaldehyd-(1E)-[O-(ethylamino)carbonyl]oxim]	0.64* mg/animal/day, s.c.	20 mg/animal/day, s.c.	20	Neither mesoprogestin tested (J 1042, J867, J956) reached the maximum effect of progesterone	1.5	biphasic response	–
CCSC(=O)O/N=C/c1ccc([C@H]2C[C@@]3(C)[C@@H](CC[C@]3(COC)OC)[C@@H]3CCC4=CC(=O)CCC4=C32)cc1 [Compound J1042, 4-[17β-Methoxy-17α-(methoxymethyl)-3-oxoestra-4,9-dien-11β-yl]benzaldehyd-(1E)-[O-(ethylthio)carbonyl]oxim]	>10 mg/animal/day, s.c.	>>100 mg/animal/day, s.c.	20	Neither mesoprogestin tested (J 1042, J867, J956) reached the maximum effect of progesterone	–	–	–
CN(C)c1ccc([C@H]2C[C@]3(C)[C@@H](CC[C@]3(O)CCCO)[C@@H]3CCC4=CC(=O)CCC4=C32)cc1 [Onapristone, onapristone, reference compound]	1.71* mg/animal/day, s.c.	ca 3 mg/animal/day, s.c.	–	–	–	–	–
CC(=O)[C@H]1CC[C@H]2[C@@H]3CCC4=CC(=O)CC[C@]4(C)[C@H]3CC[C@]12C [Progesterone, progesterone]	–	–	–	–	~4	–	≥ 0.1
CC#C[C@]1(O)CC[C@H]2[C@@H]3CCC4=CC(=O)CCC4=C3[C@@H](c3ccc(N(C)C)cc3)C[C@@]21C [RU 486, reference compound]	0.98* mg/animal/day, s.c.	3.8 mg/animal/day, s.c.	–	–	–	–	–
